Measurements: patent US20240026086A1, “POLYPHENOL DERIVATIVE AND POLYMER MATERIAL” (TOPPAN INC., priority 2020, published 2024)

Tested on: E. coli
Assay: Antibacterial test of coating films on glass substrate in accordance with JIS 22801
Type: cell-based
Conditions: against E. coli
Experimental: The polyphenol derivatives (polyphenol derivatives 1 to 4) in Examples 1 to 4 and the tannic acid in Comparative Example 1 were each applied by the above method onto a 5 cm×5 cm glass substrate at a weight of 1.2 mg/cm 2 to yield a coating film. The glass substrate samples in Examples and Comparative Example each having the coating film formed by the above method were subjected to antibacterial test by a method in accordance with JIS 22801, and antibacterial activity values (against E. coli) were determined.

O=C(OC[C@H]1O[C@@H](OC(=O)c2cc(O)c(O)c(OC(=O)c3cc(O)c(O)c(O)c3)c2)[C@H](OC(=O)c2cc(O)c(O)c(OC(=O)c3cc(O)c(O)c(O)c3)c2)[C@@H](OC(=O)c2cc(O)c(O)c(OC(=O)c3cc(O)c(O)c(O)c3)c2)[C@@H]1OC(=O)c1cc(O)c(O)c(OC(=O)c2cc(O)c(O)c(O)c2)c1)c1cc(O)c(O)c(OC(=O)c2cc(O)c(O)c(O)c2)c1 [compound 1, tannic acid]
Antibacterial test (antibacterial activity value) (coating film 1.2 mg/cm 2 on 5 cm×5 cm glass substrate): >5.8 | antibacterial activity (in words) (coating film): antibacterial activity was sufficiently achieved
